From patent US7098232B1, “Treatment and prevention of gastrointestinal disease using antagonists of partial agonists of 5HT1a receptors” (Athpharma Limited, priority 1999, dated 2006)

Assays:
[1] = system: patients suffering from non-ulcerative dyspepsia; experiment: Clinical study of pindolol in non-ulcerative dyspepsia (GSRS scores); assay type: in vivo, humans; details: 2.5 mg three times daily
Protocol: The invention is intended for the treatment of mammals, including humans.
Eleven patients suffering from non-ulcerative dyspepsia were recruited to a clinical study and gave informed consent. All were treated with pindolol 2.5 mg three times daily. […] A further patient improved in the second week. Their responses were quantified using a standard rating scale (GSRS scores).

5HT1a receptor = molecular target: T1, 5HT1a receptor (Homo sapiens, UniProt P08908); experiment: Buspirone challenge, prolactin release; assay type: in vivo; details: buspirone 30 mg orally; for Prolactin AUC (mean±SD): blood 0-180 min
T1 construct: Buspirone (30mg) or, matching placebo was administered orally; from tissue; host or cells: living human subjects (central receptors)
T1 sequence (P08908 1-422): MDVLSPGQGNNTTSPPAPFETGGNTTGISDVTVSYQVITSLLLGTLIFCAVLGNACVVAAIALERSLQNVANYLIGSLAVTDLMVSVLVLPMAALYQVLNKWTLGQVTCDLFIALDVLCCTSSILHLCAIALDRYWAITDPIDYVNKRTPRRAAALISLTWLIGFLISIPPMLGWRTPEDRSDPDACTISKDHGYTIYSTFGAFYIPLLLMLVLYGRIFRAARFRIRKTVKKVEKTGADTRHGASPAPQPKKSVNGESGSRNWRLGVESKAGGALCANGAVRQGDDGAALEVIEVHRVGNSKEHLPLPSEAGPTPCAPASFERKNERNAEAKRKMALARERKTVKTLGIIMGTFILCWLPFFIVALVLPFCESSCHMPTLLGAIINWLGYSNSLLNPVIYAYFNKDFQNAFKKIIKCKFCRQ
Source text: Studies indicate that a central 5HT1a receptor hypersensitivity may be involved in the pathophysiology of NUD (13,14). The release of prolactin from the anterior pituitary is under dopamine inhibition and under 5HT stimulation, probably at the level of the hypothalamus (15).
A total of 109 subjects, 50 NUD patients (39 female/11 male) and 59 healthy comparison subjects ([…]) gave fully informed consent to take part in the study, which had Ethics Committee approval. […] Buspirone (30mg) or, matching placebo was administered orally at 0900 h (Time 0). Blood was taken at 0, 30, 60, 90, 120 and 180 min.

gastric emptying = details: intracerebroventricular injection, animal studies; cited from earlier work

Structure (SMILES): CC(C)NCC(O)COc1cccc2[nH]ccc12 (racemic) [pindolol]
- Mean GSRS Score ([1]; Week 0 (baseline), average of 11 patients): 9
- Mean GSRS Score ([1]; Week 1, average of 11 patients): 4.2
- Mean GSRS Score ([1]; Week 2, average of 11 patients): 3.5
- Mean GSRS Score ([1]; Week 3, average of 11 patients): 2.9
- Reduction in average symptom severity ([1]; in three weeks): approximately 68%
- Patients with significant improvement in symptoms ([1]; within 1 week of commencing treatment): Seven of the 11

Structure (SMILES): O=C1CC2(CCCC2)CC(=O)N1CCCCN1CCN(c2ncccn2)CC1 [Buspirone]
- Prolactin AUC (mean±SD) (5HT1a receptor; NUD patients): 46±35
- Prolactin levels after challenge (5HT1a receptor; all subjects): rose in all subjects
- Prolactin AUC (mean±SD) (5HT1a receptor; healthy subjects): 24±35

Structure (SMILES): CCNC(C)Cc1cccc(C(F)(F)F)c1 (stereo not shown) [fenfluramine]
- Effect on gastric emptying (gastric emptying): inhibits gastric emptying
